Data on three compounds can be found in patent publication US5565426A, “Peptide compounds active in cell adhesion processes” (Adir et Compagnie, priority 1992, dated 1996).

The subject of test [1] is mice (CD-1), collagen/adrenaline-induced thromboembolism. The test can be described thus: Thromboembolism in mice (collagen + adrenaline i.v.). It counts as in vivo. To be noted: for dose from which formation of microthrombi in the lungs is inhibited: histological examination of lungs; for dose that protects half of the mice: i.v., injected with collagen + adrenaline, death or paralysis at 15 min. As to the method: Male mice (CD-1) weighing from 28 to 32 g are used for these experiments. The animals are maintained at from 26° to 28° C. for the 30 minutes preceding the experiment. A combination of collagen (150 μg/ml) and adrenaline (100 μmol/l) causes the mice to die by paralysis. Each mouse receives 0.1 ml of that combination, which gives a dose of 1.8 μg of adrenaline and 15 μg of collagen per mouse. The incidence of death or paralysis is observed 15 minutes after the intravenous injection (i.v.) of the combination (adrenaline+collagen) into the caudal vein. The peptides are injected at the same time as the combination of agonists. In the case of the tests relating to the duration of action, the mice are pre-treated with the peptides i.v. in a volume of 0.1 ml. A histological examination of the lungs is carried out in order to visualise the presence of microthrombi in the vessels of the microcirculation, which are attributable to the adrenaline-collagen combination. At the end of the experiment, the lungs are rapidly removed, fixed in formalin and then enclosed in paraffin. 5 μm sections are made and coloured with haematoxylin/eosin. The sections are examined and the presence or absence of microthrombi is noted. The X^2 test (Fischer) is used to determine whether there is a significant difference between the effects in mice that have received the peptides and those that have not.

In test [2] the test system is formation of a blood clot in the mesenteric artery of the rat. The test can be described thus: Experimental thrombosis in the mesenteric artery of the rat. To be noted: venous infusion for 5 min. The format is in vivo. As to the method: The experiments were carried out on male rats (250 to 400 g). The animals are anaesthetised with pentobarbitone (50 mg/kg i.p.). A catheter is installed in the jugular vein in order to permit i.v. injections.
The preparation of the mesenteric artery and the induction of thrombosis are carried out in accordance with the method described by Bourgain et al. Adv. Exp. Med. Biol., 180, 635-649, (1984). A longitudinal incision is made in the abdomen and part of the intestine is exposed. Using a binocular magnifying device, a branch of the mesenteric artery from 200 to 500 μm in diameter is prepared. The adjacent vein is separated and the adipose tissues are removed; a 2 mm segment of artery is thus prepared. The animal is then installed under a microscope and the segment of the mesenteric artery is perfused with physiological solution (37° C.) at 5 ml/min. The segment can be observed for several hours. The images are recorded using a video camera and a magnetoscope.
After installation and stabilisation of the preparation, a platinum electrode is placed on each side of the arteriole wall using a micromanipulator. An endothelial lesion is then induced by applying for 60 seconds an electric current of 40 μA, the current being reversed every 5 seconds. […] Normally, no thrombus formation is observed on applying the electric current.
The formation of a clot is then induced by perfusion with ADP (adenosine diphosphate) for 2 minutes. The ADP is used at a final molarity of 300 μM. The clot forms and then, after 2 to 5 minutes, disappears by embolisation. The vessel then re-assumes a normal state; there is no spontaneous formation of a clot.
The effect of the products on the formation of thrombi was tested by treating the animals by venous infusion for 5 minutes. The infusion starts […] minute before perfusion with ADP.
The recorded images are analysed and the size of the clots is expressed in arbitrary surface values. The measurements are carried out at determined times during and after the perfusion of ADP. A comparison can therefore be made of the size of the clots in the control state and after the infusion of the product.

Non-standard residues stand in square brackets, D forms with d. Residues, ends and D or L forms follow the SMILES beside them. GABA = NCCCC(=O)O Bounds are passed on as bounds.

Take `N=C(N)NCCC[C@H](NC(=O)CCCN)C(=O)NCC(=O)N[C@@H](CC(=O)O)C(=O)N[C@@H](Cc1c[nH]c2ccccc12)C(=O)O` [Example 11, H2 N--(CH2)3 --CO--Arg--Gly--Asp--Trp--OH] (H-[GABA]RGDW-OH): in test [1], the “dose from which formation of microthrombi in the lungs is inhibited” value was at least 0.03 mg/mouse and the “dose that protects half of the mice” value is 0.03 mg/mouse. In addition, the “times more active than the reference substance (RGDW)” value in test [1] (ratio of doses protecting half of the mice) is listed as 10 times.
`NCCCC[C@H](NC(=O)CCCN)C(=O)NCC(=O)N[C@@H](CC(=O)O)C(=O)N[C@@H](Cc1c[nH]c2ccccc12)C(=O)O` [Example 12, H2 N--(CH2)3 --CO--Lys--Gly--Asp--Trp--OH] (H-[GABA]KGDW-OH): the “Percentage inhibition of the formation of a blood clot in the mesenteric artery of the rat” value in test [2] (2 mg/kg/min) is given as 17%; in test [2] (5 mg/kg/min), 33%; in test [2] (10 mg/kg/min) it was 56%.
In the case of `N=C(N)NCCC[C@H](N)C(=O)NCC(=O)N[C@@H](CC(=O)O)C(=O)N[C@@H](Cc1c[nH]c2ccccc12)C(=O)O` [H--Arg--Gly--Asp--Trp--OH, reference compound] (H-RGDW-OH), in test [2] (10 mg/kg/min), the “Percentage inhibition of the formation of a blood clot in the mesenteric artery of the rat” value is recorded as 36%. The duration of action result in test [1] (dose of 1 mg, i.v. pre-treatment) is on record as “less than 5 minutes”. Also, in test [1], the “dose from which formation of microthrombi in the lungs is inhibited” value is recorded as at least 1 mg/mouse and the “dose that protects half of the mice” value came to 0.3 mg/mouse.
